Experimental data: ChEMBL document CHEMBL2331167, “Inhibitory effect of novel somatostatin peptide analogues on human cancer cell growth based on the selective inhibition of DNA polymerase β” (Bioorg Med Chem, 2013)

What was measured:
HCT-116 [1] = assay: Induction of apoptosis in p53 +/+ human HCT116 cells assessed as apoptotic cells at 13.2 uM incubated for 24 hrs by TUNEL analysis relative to p53 -/- human HCT116 cells; type: functional
HCT-116 [2] = assay: Cytotoxicity against p53 +/+ human HCT116 cells assessed as growth inhibition incubated for 24 hrs by WST-1 assay; type: functional; settings: HCT-116, 24 h, read-out: LD50 (the source's name)
DNA polymerase eta = biological target: T1, DNA polymerase eta (Homo sapiens, UniProt Q9Y253); assay: Inhibition of human DNA polymerase eta using poly(dA)/oligo(dT)18 (A/T, 2/1)/dTTP DNA template-primer substrate measured at 37 degC for 60 mins
T1 sequence (Q9Y253 whole entry): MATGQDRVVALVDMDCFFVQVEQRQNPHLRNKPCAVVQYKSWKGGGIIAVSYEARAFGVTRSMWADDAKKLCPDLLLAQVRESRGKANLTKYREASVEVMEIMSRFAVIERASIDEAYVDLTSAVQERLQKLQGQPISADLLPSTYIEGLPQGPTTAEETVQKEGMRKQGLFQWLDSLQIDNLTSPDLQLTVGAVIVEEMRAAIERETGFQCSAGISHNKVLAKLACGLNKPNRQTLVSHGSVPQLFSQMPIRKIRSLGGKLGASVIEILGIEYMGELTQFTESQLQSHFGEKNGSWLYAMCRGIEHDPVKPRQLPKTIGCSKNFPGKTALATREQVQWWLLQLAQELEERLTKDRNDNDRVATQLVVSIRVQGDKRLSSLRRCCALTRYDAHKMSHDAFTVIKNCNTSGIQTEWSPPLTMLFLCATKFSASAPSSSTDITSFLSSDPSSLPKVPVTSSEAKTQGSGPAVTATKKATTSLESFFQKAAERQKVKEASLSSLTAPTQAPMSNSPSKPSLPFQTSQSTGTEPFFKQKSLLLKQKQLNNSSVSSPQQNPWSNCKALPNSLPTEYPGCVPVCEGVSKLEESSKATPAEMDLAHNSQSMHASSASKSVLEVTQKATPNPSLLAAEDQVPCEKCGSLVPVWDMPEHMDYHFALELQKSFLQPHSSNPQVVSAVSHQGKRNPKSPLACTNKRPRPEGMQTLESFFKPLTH

[3] = biological target: T2, DNA polymerase delta catalytic subunit (Homo sapiens, UniProt P28340); assay: Inhibition of human DNA polymerase delta using poly(dA)/oligo(dT)18 (A/T, 2/1)/dTTP DNA template-primer substrate measured at 37 degC for 60 mins
T2 sequence (P28340 whole entry): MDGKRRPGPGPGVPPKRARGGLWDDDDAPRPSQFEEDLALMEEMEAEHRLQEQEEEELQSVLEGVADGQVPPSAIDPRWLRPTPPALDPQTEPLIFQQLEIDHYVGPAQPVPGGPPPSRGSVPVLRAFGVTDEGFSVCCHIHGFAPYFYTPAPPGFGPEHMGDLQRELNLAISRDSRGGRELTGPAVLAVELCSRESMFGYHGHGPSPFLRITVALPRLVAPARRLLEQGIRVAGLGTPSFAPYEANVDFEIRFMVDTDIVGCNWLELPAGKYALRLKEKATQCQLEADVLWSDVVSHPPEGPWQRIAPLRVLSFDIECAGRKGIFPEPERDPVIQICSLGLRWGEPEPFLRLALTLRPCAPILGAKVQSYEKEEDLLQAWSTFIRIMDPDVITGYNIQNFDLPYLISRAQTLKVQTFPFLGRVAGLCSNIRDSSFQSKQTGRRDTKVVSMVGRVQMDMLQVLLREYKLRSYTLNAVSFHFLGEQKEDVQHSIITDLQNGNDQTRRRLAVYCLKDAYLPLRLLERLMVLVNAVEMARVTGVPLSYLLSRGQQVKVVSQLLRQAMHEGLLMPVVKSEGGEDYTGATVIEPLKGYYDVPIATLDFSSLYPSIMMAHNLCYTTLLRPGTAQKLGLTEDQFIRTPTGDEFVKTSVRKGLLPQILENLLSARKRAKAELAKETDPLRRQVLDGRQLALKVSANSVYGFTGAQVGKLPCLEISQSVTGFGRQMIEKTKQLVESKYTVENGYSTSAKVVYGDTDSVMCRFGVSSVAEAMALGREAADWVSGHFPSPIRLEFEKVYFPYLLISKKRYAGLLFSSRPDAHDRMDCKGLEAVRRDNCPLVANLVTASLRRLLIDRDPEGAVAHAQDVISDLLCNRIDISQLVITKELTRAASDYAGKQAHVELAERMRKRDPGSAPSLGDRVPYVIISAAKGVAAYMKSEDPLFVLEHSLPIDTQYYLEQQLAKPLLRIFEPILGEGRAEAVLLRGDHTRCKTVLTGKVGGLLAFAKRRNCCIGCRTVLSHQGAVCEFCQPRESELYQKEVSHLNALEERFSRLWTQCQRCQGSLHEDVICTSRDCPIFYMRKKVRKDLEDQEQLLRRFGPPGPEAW

[4] = Inhibition of calf DNA polymerase alpha using poly(dA)/oligo(dT)18 (A/T, 2/1)/dTTP DNA template-primer substrate measured at 37 degC for 60 mins; design: species or system Bos taurus

## CC[C@H](C)[C@H](NC(=O)[C@H](Cc1ccc(O)cc1)NC(=O)OC(C)(C)C)C(=O)Nc1cccc2ccccc12
HCT-116 [1]
  fold change (FC): 3
HCT-116 [2]
  CC50: 13.2 µM
DNA polymerase eta
  IC50: > 200 µM
[3]
  IC50: > 200 µM
[4]
  IC50: > 200 µM
